Key:
[1] = test system: MOLP-8 human multiple myeloma cell line; test: Study 4: MOLP-8 xenograft human multiple myeloma subcutaneous tumor model; type: in vivo, SCID mice; details: for Tumor growth compared to vehicle (pairwise comparison): I-263a 7.5 mg/kg BIW 2 weeks (p < 0.05 as printed), daratumumab 2.5, 7.5 or 20 mg/kg (p < 0.01; p < 0.01; p < 0.001), I-263a with daratumumab 2.5, 7.5 or 20 mg/kg (p < 0.001); for GRI%: vs vehicle
Experimental: (§1) Low tumor volumes can cause problems with the data analysis, so all measurements below 25 cubic mm (including 0 values) were excluded from the analysis. After this exclusion step, the tumor volume was assumed to follow an exponential growth model. More specifically, for a given animal and treatment group,
(§2) Pairwise comparisons were performed, where the mean growth rates were compared for various pairs of treatment conditions. The results were summarized using the growth rate inhibition (GRI). Suppose µT and µC are the mean tumor growth rates for the treatment and reference groups, respectively. Define
(§3) Here, µAB, µA, µB, and µControl are the mean growth rates for the combination, drug A, drug B, and control groups, respectively. As before, µv is the mean tumor growth rate for the vehicle group, which in most cases is the same as the control group. The standard error of the synergy score was calculated as the square root of the sum of squared standard errors across the four groups. The degrees of freedom were estimated using the Welch-Satterthwaite equation. A hypothesis test was performed to determine if the synergy score differed from 0. P-values were calculated by dividing the synergy score by its standard error and tested against a t-distribution (two-tailed) with the above-calculated degrees of freedom. A P value of less than 0.05 is statistically significant.
(§4) The combination results can be interpreted as follows. Statistically significant negative synergy scores indicate a synergistic combination (“Syn.”). Statistically significant positive synergy scores indicate a sub-additive combination (“Sub-add.”) when the combination performs better (i.e. has a lower growth rate) than the best performing single agent. Statistically significant positive synergy scores indicate an antagonistic combination (“Antag.”) when the combination performs worse than the best performing single agent. Scores that are not statistically significant should be considered additive (“Add.”).
MOLP-8 is a human multiple myeloma cell line. A MOLP-8 human xenograft tumor model was generated by subcutaneous inoculation with 4.0 × 10^6 MOLP-8 cells (cell suspension) in 14 weeks old female SCID mice (Vital River Laboratory Animal Technology Co., Ltd, Beijing, China) in the flank. When the mean tumor volume reached approximately 170 mm^3, the animals were randomized into one vehicle control and seven treatment groups (n=8/group). Mice were then dosed with 20% HPβCD or Compound I-263a or daratumumab over a 14-day period. Tumor growth and body weight were measured twice per week during the treatment and post-treatment periods, and mice were humanely euthanized once they had reached their humane endpoint.
A 0.75 mg/mL stock solution of I-263a was formulated weekly in 20% HPβCD and administered IV based on exact animal body weight on each day of treatment, using a dosing volume of 10 mL/kg body weight. Final dose I-263a received was 7.5 mg/kg. I-263a was administered on a BIW schedule for 2 weeks (Days 1, 4, 8, and 11). Daratumumab (anti-CD38 antibody) (Janssen Biotech, Inc., Horsham, PA) was stored at 4° C. according to manufacturer’s instructions. Final dose daratumumab received was 2.5 mg/kg, 7.5 mg/kg, and 20 mg/kg based on exact animal body weight on each day of treatment, using a dosing volume of 10 mL/kg body weight. Daratumumab was administered intraperitoneally (IP) using a 0.1 mL dosing volume, on a BIW schedule for 2 weeks (Days 1, 4, 8, and 11).
Tumors were measured twice weekly using Vernier calipers. Tumor volumes were calculated using standard equation: V = W^2 × L/2, where V = volume, W = width, and L = length for the tumor. When mean tumor volumes reached approximately 170 mm^3, mice were randomized into control and treatment groups. Mice were randomized into 8 groups (n=8/group) and dosed with vehicle (20% HPβCD), I-263a, daratumumab, or the combination of I-263a plus daratumumab at doses and schedules as described above. […]

[2] = test system: A20-hCD38 mouse B-cell lymphoma cell line engineered to express the human CD38 cell surface protein; test: Study 2: A20-hCD38 syngeneic mouse tumor model; type: in vivo, Balb/c mice; details: for GRI%: vs vehicle; for Tumor growth relative to vehicle-treated tumors (pairwise comparison): I-263a 7.5 mg/kg QW or 15 mg/kg Q2W, daratumumab 20 mg/kg BIW, or I-263a plus daratumumab, data up to Day 15, p < 0.001
Experimental: as §1, §2, §3, §4
A20-hCD38 is a mouse B-cell lymphoma cell line engineered to express the human CD38 cell surface protein. An A20-hCD38 syngeneic mouse tumor model was generated by subcutaneous inoculation with 5.0 × 10^6 cells (cell suspension) in 6 weeks old female Balb/c mice (Jackson Laboratory, 10 Discovery Dr., Farmington, CT) in the flank. When the mean tumor volume reached approximately 70 mm^3, the animals were randomized into one vehicle control and five treatment groups (n=8/group). Mice were dosed with 20% HPβCD or Compound I-263a or daratumumab over a 28-day period. Tumor growth and body weight were measured twice per week during the treatment and post-treatment periods, and mice were humanely euthanized once they had reached their humane endpoint.
A 1.575 mg/mL and a 0.788 mg/mL stock solution of I-263a was formulated weekly in 20% HPβCD and administered IV based on an average body weight using a 0.2 mL dosing volume. Final doses I-263a received were 15 mg/kg or 7.5 mg/kg, respectively. I-263a was administered on a QW or Q2W schedule for 4 weeks (Days 1, 8, 15, and 22). Daratumumab (anti-CD38 antibody) (Myoderm Medical Supplies, 48 E Main St., Norristown, PA 19401) was purchased at the beginning of the study and stored at 4° C. according to manufacturer’s instructions. Final dose daratumumab received was 20 mg/kg based on average body weight. Daratumumab was administered intraperitoneally (IP) using a 0.1 mL dosing volume, on a BIW schedule for 4 weeks (Days 1, 4, 8, 11, 15, 18, 22 and 25).
Tumors were measured twice weekly using Vernier calipers. Tumor volumes were calculated using standard equation: V = W^2 × L/2, where V = volume, W = width, and L = length for the tumor. When mean tumor volumes reached approximately 70 mm^3, mice were randomized into control and treatment groups. Mice were randomized into 6 groups (n=8/group) and dosed with vehicle (20% HPβCD), I-263a, daratumumab, or the combination of I-263a plus daratumumab at doses and schedules as described above. […]

[3] = test system: RPMI-8226 human multiple myeloma cell line; test: Study 6: RPMI-8226 human multiple myeloma subcutaneous tumor model; type: in vivo, SCID mice; details: for Tumor growth compared to vehicle-treated tumors (pairwise comparison): I-263a 7.5 mg/kg BIW 2 weeks, daratumumab 2.5, 7.5 or 20 mg/kg BIW 2 weeks, or both, p > 0.05; for GRI%: vs vehicle

Cc1sc(C(=O)c2cncnc2N[C@@H]2C[C@H](COS(N)(=O)=O)[C@@H](O)C2)cc1[C@@H]1NCCc2ccc(Cl)cc21 [Compound I-263a, [(1R,2S,4R)-4-{[5-({4-[(1R)-7-chloro-1,2,3,4-tetrahydroisoquinolin-1-yl]-5-methyl-2-thienyl}carbonyl)pyrimidin-4-yl]amino}-2-hydroxycyclopentyl]methyl sulfamate]
Tumor growth compared to vehicle (pairwise comparison) [1]: not significantly different | Tumor volume on Day 14 (± SEM) ([1]; I-263a 7.5 mg/kg BIW IV): 2500.8 ± 106.6 | GRI% ([1]; I-263a 7.5 mg/kg BIW IV): 3% | Tumor volume on Day 15 (± SEM) ([2]; I-263a 7.5 mg/kg QW IV): 613.1 ± 179.3 | GRI% ([2]; I-263a 7.5 mg/kg QW IV): 37% | Tumor growth relative to vehicle-treated tumors (pairwise comparison) [2]: significant tumor growth inhibition | Tumor volume on Day 15 (± SEM) ([2]; I-263a 15 mg/kg Q2W IV): 839.7 ± 229.7 | GRI% ([2]; I-263a 15 mg/kg Q2W IV): 24% | Tumor growth compared to vehicle-treated tumors (pairwise comparison) [3]: not significantly different than vehicle-treated tumors | Tumor volume on Day 20 (± SEM) ([3]; I-263a 7.5 mg/kg BIW IV): 1763.2 ± 213.2 | GRI% ([3]; I-263a 7.5 mg/kg BIW IV): -12%

Daratumumab: immunoglobulin G1 kappa (IgG1κ) human monoclonal antibody against CD38 antigen
Tumor volume on Day 14 (± SEM) ([1]; Daratumumab 2.5 mg/kg BIW IP): 2047.4 ± 83.4 | GRI% ([1]; Daratumumab 2.5 mg/kg BIW IP): 11% | Tumor volume on Day 14 (± SEM) ([1]; Daratumumab 7.5 mg/kg BIW IP): 1653 ± 158.5 | GRI% ([1]; Daratumumab 7.5 mg/kg BIW IP): 20% | Tumor volume on Day 14 (± SEM) ([1]; Daratumumab 20 mg/kg BIW IP): 1250.6 ± 108.6 | GRI% ([1]; Daratumumab 20 mg/kg BIW IP): 28% | Tumor growth compared to vehicle (pairwise comparison) [1]: significantly inhibited growth curves | Tumor volume on Day 15 (± SEM) ([2]; Daratumumab 20 mg/kg BIW IP): 1443.7 ± 276.4 | GRI% ([2]; Daratumumab 20 mg/kg BIW IP): 3% | Tumor growth relative to vehicle-treated tumors (pairwise comparison) [2]: significant tumor growth inhibition | Tumor volume on Day 20 (± SEM) ([3]; Daratumumab 2.5 mg/kg BIW IP): 1875.5 ± 170.1 | GRI% ([3]; Daratumumab 2.5 mg/kg BIW IP): -6% | Tumor volume on Day 20 (± SEM) ([3]; Daratumumab 7.5 mg/kg BIW IP): 1510.7 ± 144.6 | GRI% ([3]; Daratumumab 7.5 mg/kg BIW IP): -2% | Tumor volume on Day 20 (± SEM) ([3]; Daratumumab 20 mg/kg BIW IP): 1456.6 ± 166.6 | GRI% ([3]; Daratumumab 20 mg/kg BIW IP): 11% | Tumor growth compared to vehicle-treated tumors (pairwise comparison) [3]: not significantly different than vehicle-treated tumors
